Experimental data: ChEMBL document CHEMBL1201862, “PubChem BioAssay data set” (2004)
Where “and” joins values, the source holds several entries; their conditions need not be identical. Equal values may be shown once. Calls of active or inactive are those of the source.

Assays:
[1] = target: T1, Dual specificity protein phosphatase 6 (Rattus norvegicus, UniProt Q64346); test: SAR analysis of inhibitors of MKP-3 - Set 2. [Related pubchem assays (depositor defined):AID1055, AID1661, AID425, AID553, AID566]; type: functional
T1 sequence (Q64346 whole entry): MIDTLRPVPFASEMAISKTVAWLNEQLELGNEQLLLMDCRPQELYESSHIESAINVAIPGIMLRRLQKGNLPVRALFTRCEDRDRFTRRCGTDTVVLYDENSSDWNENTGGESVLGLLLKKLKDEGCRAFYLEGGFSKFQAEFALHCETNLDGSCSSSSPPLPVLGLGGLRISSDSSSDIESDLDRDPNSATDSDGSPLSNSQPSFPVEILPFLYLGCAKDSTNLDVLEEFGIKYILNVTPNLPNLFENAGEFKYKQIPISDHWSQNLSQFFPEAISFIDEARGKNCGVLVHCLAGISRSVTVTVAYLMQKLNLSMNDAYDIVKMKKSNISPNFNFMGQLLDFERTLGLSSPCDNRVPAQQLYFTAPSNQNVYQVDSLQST

[2] = target: Glucose-6-phosphate 1-dehydrogenase (Homo sapiens, UniProt P11413); test: inhibition of Homo sapiens G6PD, dose series – biochemical, fluorescence, selectivity assay for P. falciparum G6PD inhibitor project, dose response (AID 504792); type: functional
Chain of Glucose-6-phosphate 1-dehydrogenase (P11413 whole entry): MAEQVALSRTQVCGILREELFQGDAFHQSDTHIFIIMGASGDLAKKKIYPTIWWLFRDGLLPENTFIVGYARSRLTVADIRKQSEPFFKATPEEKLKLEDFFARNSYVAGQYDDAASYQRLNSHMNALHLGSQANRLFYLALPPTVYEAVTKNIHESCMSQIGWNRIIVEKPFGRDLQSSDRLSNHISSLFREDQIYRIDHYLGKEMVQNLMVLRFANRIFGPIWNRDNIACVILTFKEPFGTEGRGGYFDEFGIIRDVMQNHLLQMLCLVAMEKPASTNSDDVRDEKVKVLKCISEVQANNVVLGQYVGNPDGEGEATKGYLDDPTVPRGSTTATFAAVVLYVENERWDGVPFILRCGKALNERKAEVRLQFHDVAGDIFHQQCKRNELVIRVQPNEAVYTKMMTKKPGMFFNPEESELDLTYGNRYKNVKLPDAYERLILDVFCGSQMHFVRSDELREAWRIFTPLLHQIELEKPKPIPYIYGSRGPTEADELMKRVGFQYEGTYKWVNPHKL

[3] = target: DNA dC->dU-editing enzyme APOBEC-3A (Homo sapiens, UniProt P31941); test: A3A deaminase inhibition for selectivity – biochemical, dose response (AID 504722); type: functional
Chain of DNA dC->dU-editing enzyme APOBEC-3A (P31941 whole entry): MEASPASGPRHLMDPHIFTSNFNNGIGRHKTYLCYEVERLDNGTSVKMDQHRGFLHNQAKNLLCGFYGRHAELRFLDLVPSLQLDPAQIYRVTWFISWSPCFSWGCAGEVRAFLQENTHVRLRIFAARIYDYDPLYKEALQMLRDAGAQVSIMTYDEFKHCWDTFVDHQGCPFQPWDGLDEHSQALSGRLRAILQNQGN

[4] = target: T2, Dual specificity protein phosphatase 3 (Homo sapiens, UniProt P51452); test: SAR VHR1 absorbance Assay for In Vitro dose response studies. [Related pubchem assays (depositor defined):AID1654, AID1661, AID1878, AID1992, AID2004]
T2 sequence (P51452 whole entry): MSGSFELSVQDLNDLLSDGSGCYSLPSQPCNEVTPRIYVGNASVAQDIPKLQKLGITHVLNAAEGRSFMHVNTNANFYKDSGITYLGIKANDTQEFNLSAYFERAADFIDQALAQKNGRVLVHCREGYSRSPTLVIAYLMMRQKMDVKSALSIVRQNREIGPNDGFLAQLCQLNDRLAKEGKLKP

[5] = target: T1, Dual specificity protein phosphatase 6; test: inhibition of rat DUSP6 enzyme activity – biochemical, in vitro, primary screen (AID 425)
[6] = target: T3, Tyrosine-protein phosphatase non-receptor type 7 (Homo sapiens, UniProt P35236); test: SAR analysis of chemical inhibitors of HePTP using a Fluorescent assay - Set 2. [Related pubchem assays (depositor defined):AID1059, AID1077, AID1661, AID2085, AID521]; type: functional
T3 sequence (P35236 whole entry): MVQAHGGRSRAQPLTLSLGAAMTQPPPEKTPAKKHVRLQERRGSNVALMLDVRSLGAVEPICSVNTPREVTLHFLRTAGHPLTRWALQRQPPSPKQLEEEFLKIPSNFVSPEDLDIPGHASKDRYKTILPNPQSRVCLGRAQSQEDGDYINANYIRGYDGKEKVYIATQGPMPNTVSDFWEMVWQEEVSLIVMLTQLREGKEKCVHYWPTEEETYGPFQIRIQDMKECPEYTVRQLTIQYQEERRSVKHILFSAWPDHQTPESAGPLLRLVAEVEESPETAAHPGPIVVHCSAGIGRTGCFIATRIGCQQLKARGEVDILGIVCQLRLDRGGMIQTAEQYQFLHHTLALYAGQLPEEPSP

[7] = target: T2, Dual specificity protein phosphatase 3; test: SAR VHR1 Fluorescent Assay for In Vitro dose response studies Set 2. [Related pubchem assays (depositor defined):AID1654, AID1661, AID1878]; type: functional
[8] = target: T1, Dual specificity protein phosphatase 6; type: functional
[9] = target: T2, Dual specificity protein phosphatase 3; test: SAR VHR1 Fluorescent Assay for In Vitro dose response studies. [Related pubchem assays (depositor defined):AID1654, AID1661, AID1878, AID1992, AID2004, AID2070, AID2085]; type: functional
[10] = target: T2, Dual specificity protein phosphatase 3; test: VHR1 phosphatase inhibitors, biochemical (AID 1878)
[11] = target: T4, Rac GTPase-activating protein 1 (Homo sapiens, UniProt Q9H0H5); test: blockers of MgcRacGAP-driven Rac1 GTP hydrolysis – biochemical, ADP Hunter fluorescence, primary and confirmatory, confirmation (AID 624330); type: functional
T4 sequence (Q9H0H5 whole entry): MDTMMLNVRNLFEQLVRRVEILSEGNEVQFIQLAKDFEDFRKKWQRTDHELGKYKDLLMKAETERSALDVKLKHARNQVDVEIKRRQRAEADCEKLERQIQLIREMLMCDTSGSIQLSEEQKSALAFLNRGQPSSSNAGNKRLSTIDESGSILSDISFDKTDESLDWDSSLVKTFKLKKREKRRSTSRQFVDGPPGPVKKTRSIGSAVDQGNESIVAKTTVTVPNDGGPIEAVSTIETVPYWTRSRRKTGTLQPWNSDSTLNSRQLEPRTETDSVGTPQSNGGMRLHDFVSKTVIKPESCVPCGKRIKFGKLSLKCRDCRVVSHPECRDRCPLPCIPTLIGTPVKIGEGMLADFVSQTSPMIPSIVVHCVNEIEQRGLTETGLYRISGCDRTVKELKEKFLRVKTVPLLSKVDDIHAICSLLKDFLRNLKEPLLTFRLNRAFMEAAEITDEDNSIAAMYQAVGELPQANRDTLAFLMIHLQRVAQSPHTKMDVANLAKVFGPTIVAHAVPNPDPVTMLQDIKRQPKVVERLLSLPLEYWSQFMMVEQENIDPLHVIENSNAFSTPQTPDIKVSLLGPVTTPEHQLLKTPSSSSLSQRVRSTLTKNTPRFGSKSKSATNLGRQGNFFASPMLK

[12] = target: DNA dC->dU-editing enzyme APOBEC-3G (Homo sapiens, UniProt Q9HC16); test: Dose Response confirmation of small molecule APOBEC3G DNA Deaminase Inhibitors via a fluorescence-based single-stranded DNA deaminase assay. [Related pubchem assays (depositor defined):AID493012, AID493028]; type: functional
Chain of DNA dC->dU-editing enzyme APOBEC-3G (Q9HC16 whole entry): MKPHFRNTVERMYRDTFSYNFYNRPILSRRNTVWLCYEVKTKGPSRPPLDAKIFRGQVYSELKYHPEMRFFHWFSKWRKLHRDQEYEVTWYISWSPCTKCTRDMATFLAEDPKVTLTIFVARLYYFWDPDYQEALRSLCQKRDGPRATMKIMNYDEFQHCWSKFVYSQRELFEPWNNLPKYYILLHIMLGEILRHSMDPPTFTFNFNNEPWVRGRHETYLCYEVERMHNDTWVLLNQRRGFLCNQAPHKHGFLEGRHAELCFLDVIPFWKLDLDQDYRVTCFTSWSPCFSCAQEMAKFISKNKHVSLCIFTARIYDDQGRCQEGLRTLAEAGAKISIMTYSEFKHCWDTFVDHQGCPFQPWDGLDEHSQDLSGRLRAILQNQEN

[13] = target: T2, Dual specificity protein phosphatase 3; test: VHR1 phosphatase inhibitors, primary screen, biochemical, absorbance, uHTS (AID 1654)
[14] = target: T3, Tyrosine-protein phosphatase non-receptor type 7; test: redox-active compounds inhibiting HePTP phosphatase – biochemical, fluorescence, mechanism study (AID 2068); type: functional
[15] = target: T3, Tyrosine-protein phosphatase non-receptor type 7; test: inhibition of hematopoietic tyrosine phosphatase HePTP – biochemical, set 2, SAR follow-up (AID 449736); type: functional
Jurkat [16] = test: blockers of NF-kB activation in T cells – Jurkat, luciferase reporter, luminescence, B- and T-cell, dose response (AID 489004); type: functional, cell-based; conditions: Homo sapiens;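 note: NF-kB luciferase reporter Jurkat cells stimulated with PMA plus ionomycin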
[17] = HEK-293T viability loss, compound-treated – cell-based, uHTS hits, cytotoxicity control for B/T-cell NF-kB inhibitor project, dose response (AID 489019); type: functional;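 note: IC50 reflects cytotoxicity as loss of cell viability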
[18] = target: Beta-adrenergic receptor kinase 1 (Homo sapiens, UniProt P25098); test: blockers of aptamer binding to GRK2 – biochemical, flow cytometry beads, FAM-aptamer, powder set 1, dose response (AID 588720)
Chain of Beta-adrenergic receptor kinase 1 (P25098 whole entry, the tested form may be a part): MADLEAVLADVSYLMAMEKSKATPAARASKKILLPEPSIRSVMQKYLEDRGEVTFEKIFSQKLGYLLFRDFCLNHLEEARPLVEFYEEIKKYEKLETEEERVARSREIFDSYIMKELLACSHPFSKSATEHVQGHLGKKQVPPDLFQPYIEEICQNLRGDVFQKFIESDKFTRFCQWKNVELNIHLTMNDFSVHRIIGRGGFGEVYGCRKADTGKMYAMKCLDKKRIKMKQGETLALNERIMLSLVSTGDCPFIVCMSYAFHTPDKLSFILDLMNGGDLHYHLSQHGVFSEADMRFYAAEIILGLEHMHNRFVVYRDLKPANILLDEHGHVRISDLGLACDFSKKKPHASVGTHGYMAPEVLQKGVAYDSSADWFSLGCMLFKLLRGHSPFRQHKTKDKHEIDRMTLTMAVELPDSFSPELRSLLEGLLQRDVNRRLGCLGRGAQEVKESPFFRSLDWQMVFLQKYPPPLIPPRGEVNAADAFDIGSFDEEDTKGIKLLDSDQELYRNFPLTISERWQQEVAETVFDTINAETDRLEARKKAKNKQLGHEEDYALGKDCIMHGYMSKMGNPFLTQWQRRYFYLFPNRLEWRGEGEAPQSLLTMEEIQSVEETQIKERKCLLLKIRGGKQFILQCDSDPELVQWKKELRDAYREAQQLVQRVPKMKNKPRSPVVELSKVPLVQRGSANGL

[19] = target: T5, Carboxy-terminal domain RNA polymerase II polypeptide A small phosphatase 1 (Homo sapiens, UniProt Q9GZU7); test: CTDSP1 inhibitors, concentration-response, biochemical, absorbance readout, ultra-high-throughput screen actives (AID 540297); type: functional
T5 sequence (Q9GZU7 whole entry): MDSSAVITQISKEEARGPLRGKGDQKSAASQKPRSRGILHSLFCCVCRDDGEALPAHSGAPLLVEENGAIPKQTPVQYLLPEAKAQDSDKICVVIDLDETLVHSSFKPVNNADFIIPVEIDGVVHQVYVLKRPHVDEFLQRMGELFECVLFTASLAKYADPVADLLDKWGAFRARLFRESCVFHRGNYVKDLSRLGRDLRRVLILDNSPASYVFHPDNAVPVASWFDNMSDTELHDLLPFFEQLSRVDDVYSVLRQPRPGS

Jurkat [20] = test: SAR Analysis of small molecule inhibitors of […] specific antigen receptor-induced NF-kB activation in a Jurkat cell line using a luminescence assay - Set 3. [Related pubchem assays (depositor defined):AID435022, AID435025, AID465]; type: functional, cell-based; conditions: Homo sapiens
HEK293 [21] = test: HEK293T cell viability loss, resazurin readout – resazurin fluorescence, cytotoxicity control for NF-kB activator project, SAR follow-up (AID 493251); type: functional, cell-based; conditions: Homo sapiens
HEK293 [22] = test: SAR Analysis of small molecule inhibitors of B-cell specific antigen receptor-induced NF-kB activation in a HEK-293T cell line using a luminescence assay - Set 2. [Related pubchem assays (depositor defined):AID435022, AID435025, AID489021]; type: functional, cell-based; conditions: Homo sapiens
[23] = HEK-293T cell viability reduction – luminescence, B-cell screen hits, cytotoxicity control for BCR NF-kB inhibitor project, dose response (AID 489021); type: functional, cell-based;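 note: HEK-293T cells carrying an NF-kB luciferase reporter; cells exposed to compound for about 14 hours before viability readout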
Paired box protein Pax-8 = Paired box protein Pax-8 (Homo sapiens, UniProt Q06710); test: PAX8 transcriptional activity inhibition in RMG-I – RMG-I cells, luciferase, cherry-pick, dose response (AID 687027); type: functional, cell-based;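 note: luciferase reporter driven by Pax8 target thyroperoxidase promoter measured by SteadyGlo luminescence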
Chain of Paired box protein Pax-8 (Q06710 whole entry): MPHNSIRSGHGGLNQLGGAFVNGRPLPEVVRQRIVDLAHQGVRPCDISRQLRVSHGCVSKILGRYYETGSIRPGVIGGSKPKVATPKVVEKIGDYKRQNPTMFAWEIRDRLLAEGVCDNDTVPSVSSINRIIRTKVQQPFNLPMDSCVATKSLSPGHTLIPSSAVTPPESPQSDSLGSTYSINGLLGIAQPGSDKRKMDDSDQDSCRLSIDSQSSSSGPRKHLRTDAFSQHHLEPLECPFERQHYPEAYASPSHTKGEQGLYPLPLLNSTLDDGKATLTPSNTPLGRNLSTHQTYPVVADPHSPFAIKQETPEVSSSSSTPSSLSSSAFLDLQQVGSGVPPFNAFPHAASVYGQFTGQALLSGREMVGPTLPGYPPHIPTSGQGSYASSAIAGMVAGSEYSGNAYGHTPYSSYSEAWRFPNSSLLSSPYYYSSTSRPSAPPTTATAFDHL

[24] = Luminescent dose response cell-based high throughput screening assay for inhibitors of the Janus kinase 2 mutant JAK2V617F. [Related pubchem assays: 1446 (Primary screen.), 1521 (Confirmation assay.), 1486 (Counter screen.)]; type: functional
[25] = target: T6, Microphthalmia-associated transcription factor (Homo sapiens, UniProt O75030); test: reducers of TRPM1 reporter luminescence, concentration series – cell-based, SK-MEL-5, cherry-picked, set 3, MITF inhibitor project, dose response (AID 493073); type: functional;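 note: SK-MEL-5 melanoma cells with luciferase driven by the MITF target TRPM1 promoter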
T6 sequence (O75030 whole entry): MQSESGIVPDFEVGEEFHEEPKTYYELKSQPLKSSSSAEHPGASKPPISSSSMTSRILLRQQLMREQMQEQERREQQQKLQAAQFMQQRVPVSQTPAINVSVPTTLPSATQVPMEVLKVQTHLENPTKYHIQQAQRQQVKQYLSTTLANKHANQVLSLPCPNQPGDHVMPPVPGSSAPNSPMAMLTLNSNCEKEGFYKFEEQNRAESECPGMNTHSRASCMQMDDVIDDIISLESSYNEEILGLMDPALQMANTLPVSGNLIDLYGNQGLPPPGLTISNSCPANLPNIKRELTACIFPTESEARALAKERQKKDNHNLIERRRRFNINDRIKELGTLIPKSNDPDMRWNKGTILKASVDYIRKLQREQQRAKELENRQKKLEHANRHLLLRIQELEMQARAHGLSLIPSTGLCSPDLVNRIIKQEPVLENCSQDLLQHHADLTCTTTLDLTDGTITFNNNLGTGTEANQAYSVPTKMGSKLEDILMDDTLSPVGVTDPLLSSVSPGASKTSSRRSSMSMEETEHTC

A-375 = test: MITF: Counter assay: A375 proliferation Measured in Cell-Based System Using Plate Reader - 2084-03_Inhibitor_Dose_DryPowder_Activity. [Related pubchem assays (depositor defined):AID488944]; type: functional; conditions: Homo sapiens

SMILES: CN1CCN(C(=O)c2sc(=S)n(-c3ccccc3)c2N)CC1
- IC50 [1]: > 100 µM (inactive)
- IC50 [2]: > 80 µM (inactive)
- IC50 [3]: > 100 µM (inactive)
- IC50 [4]: 0.53 µM (active)
- IC50 [5]: > 158 µM (not active)
- IC50 [6]: 1.05 µM (active)
- IC50 [7]: 0.26 µM (active)
- IC50 [8]: > 99 µM (inactive)
- IC50 [9]: > 99 µM (inactive)
- IC50 [10]: 3.53 µM (active)
- IC50 [11]: 191 µM (active)
- IC50 [12]: 5.51 µM (active)
- IC50 [13]: 1.27 µM (active)
- IC50 [14]: 0.0586 µM (active)
- IC50 [15]: 1.14 µM (active) and > 100 µM (inactive) and 7.06 µM (active)

SMILES: Cn1nc(CC(=O)Nc2ccc3c(c2)CCC3)c2ccccc2c1=O
- IC50 (Jurkat [16]): > 80 µM (inactive)
- IC50 [17]: > 80 µM (inactive)

SMILES: O=C(CCS(=O)(=O)c1ccc(Br)cc1)Nc1ccc(Br)cc1F
- EC50 [18]: 21.2 µM (active)
- IC50 [19]: 22 µM (active)

SMILES: CCCNC(=O)CSCc1nc(-c2ccc(SC)cc2)oc1C
- IC50 (Jurkat [20]): > 80 µM (inactive)
- IC50 (HEK293 [21]): > 80 µM (inactive)
- IC50 (HEK293 [22]): 42.5 µM (inactive)
- IC50 [23]: > 80 µM (inactive)

SMILES: Cc1ccc2nc(C)cc(Nc3ccc([N+](=O)[O-])cc3)c2c1
- AC50 (Paired box protein Pax-8): 5.33 µM (active)
- IC50 [24]: 1.29 µM (active)
- AC50 [25]: 5.88 µM (active)
- AC50 (A-375): 24.7 µM (active)
